The text below walks through data of patent US9540343B2 (Gilead Sciences, Inc., priority 2011, dated 2017).

Structures are written as SMILES.

One data set relates to HIV-IIIb. In words: Test A: Antiviral assay in MT4 cells. The class given is cell-based, HIV-1. Particulars: Human immunodeficiency virus 1, IIIB, MT4, 120 h, read-out: % inhibition at 2 μM, percent inhibition of virus-induced cell killing, from dose response curve at 2 uM drug; MT-4 cells infected with HIV-IIIb, 5 days, CellTiter-Glo.
A further data set is described as follows: in vitro. Particulars: human, uninfected MT-4 cells, CC50 (nM), same protocol as Test A, CellTiter-Glo. The method, boiled down: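 Cytoprotection read-out: CellTiter-Glo chemiluminescence after 5 days at 37 °C of HIV-IIIb-infected MT-4 cells (m.o.i. 0.003) with compound in 10-point 3-fold dilutions, quadruplicate, 10% FBS. Cytotoxicity (CC50) measured identically without virus.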

For `C#Cc1cn(CC(=O)N[C@@H](Cc2cc(F)cc(F)c2)c2ncccc2-c2ccc(F)c(C(N)=O)c2)nc1C(F)(F)F` [Example 341, (S)-5-(2-(2-(3,5-difluorophenyl)-1-(2-(4-ethynyl-3-(trifluoromethyl)-1H-pyrazol-1-yl)acetamido)ethyl)pyridin-3-yl)-2-fluorobenzamide], the inhibition at 2 µM in the data set on HIV-IIIb amounted to 13%. Besides, the CC50 at 5 days in “in vitro” stood at 26600 nM.
For `NC(=O)c1cc(-c2cccnc2[C@H](Cc2cc(F)cc(F)c2)NC(=O)Cn2nc(C(F)(F)F)c3c2C2CC2CC3)ccc1F` (stereo partly drawn) [Example 342C, 5-(2-((1S)-2-(3,5-difluorophenyl)-1-(2-(3-(trifluoromethyl)-5,5a,6,6a-tetrahydrocyclopropa[g]indazol-1(4H)-yl)acetamido)ethyl)pyridin-3-yl)-2-fluorobenzamide], the inhibition at 2 µM in the data set on HIV-IIIb came out at 119%. The midpoint of cytotoxicity in “in vitro”, the CC50 at 5 days, lay at 13700 nM.
For the compound `CCc1c(C2CC2)c(C(F)(F)F)nn1CC(=O)N[C@@H](Cc1cc(F)cc(F)c1)c1ncccc1-c1ccc(F)c(C(N)=O)c1` [Example 343, (S)-5-(2-(1-(2-(4-cyclopropyl-5-ethyl-3-(trifluoromethyl)-1H-pyrazol-1-yl)acetamido)-2-(3,5-difluorophenyl)ethyl)pyridin-3-yl)-2-fluorobenzamide], the inhibition at 2 µM with HIV-IIIb is 62%. In the data set “in vitro”, this compound returned a half-maximal cytotoxic concentration (CC50) at 5 days of 15500 nM.
Turning to `Cc1cc(=O)n(CC(=O)N[C@@H](Cc2cc(F)cc(F)c2)c2ncccc2-c2cccc(S(N)(=O)=O)c2)c2ccccc12` [Example 345, (S)—N-(2-(3,5-difluorophenyl)-1-(3-(3-sulfamoylphenyl)pyridin-2-yl)ethyl)-2-(4-methyl-2-oxoquinolin-1(2H)-yl)acetamide], the inhibition at 2 µM in the data set with HIV-IIIb was found to be 21%. In “in vitro”, this compound yielded a CC50 at 5 days of 12400 nM.
For `NC(=O)c1cc(-c2cccnc2[C@H](Cc2cc(F)cc(F)c2)NC(=O)Cn2nc3c(c2C(F)(F)F)C(=O)C2CC32)ccc1F` (stereo partly drawn) [Example 346D, 5-(2-((1S)-2-(3,5-difluorophenyl)-1-(2-(4-oxo-3-(trifluoromethyl)-4,4-a,5,5a-tetrahydro-2H-cyclopropa[4,5]cyclopenta[1,2-c]pyrazol-2-yl)acetamido)ethyl)pyridin-3-yl)-2-fluorobenzamide], the inhibition at 2 µM in the data set with HIV-IIIb was found to be 1%. Moreover, in “in vitro”, the cytotoxic concentration (CC50) at 5 days worked out at 39000 nM.
Take `CC1(O)CCCc2c(C(F)F)nn(CC(=O)N[C@@H](Cc3cc(F)cc(F)c3)c3ncccc3-c3ccc(F)c(C(N)=O)c3)c21` (stereo partly drawn) [Example 349B, 5-(2-((1S)-1-(2-(3-(difluoromethyl)-7-hydroxy-7-methyl-4,5,6,7-tetrahydro-1H-indazol-1-yl)acetamido)-2-(3,5-difluorophenyl)ethyl)pyridin-3-yl)-2-fluorobenzamide]: the inhibition at 2 µM with HIV-IIIb came out at 94%. In “in vitro”, this compound had a CC50 at 5 days of 40800 nM.
Turning to `NC(=O)c1cc(-c2cccnc2[C@H](Cc2cc(F)cc(F)c2)NC(=O)Cn2cc(C(F)F)c(C(F)(F)F)n2)ccc1F` [Example 350, (S)-5-(2-(1-(2-(4-(difluoromethyl)-3-(trifluoromethyl)-1H-pyrazol-1-yl)acetamido)-2-(3,5-difluorophenyl)ethyl)pyridin-3-yl)-2-fluorobenzamide], in the data set with HIV-IIIb, the inhibition at 2 µM amounted to 10%. Moreover, in the data set “in vitro”, the CC50 at 5 days came to 28100 nM.
On to `O=C(Cn1nc(C(F)(F)F)c2c1CCCC2)N[C@@H](Cc1cc(F)cc(F)c1)c1ncncc1-c1ccc(Cl)cc1` [Example 351, (S)—N-(1-(5-(4-chlorophenyl)pyrimidin-4-yl)-2-(3,5-difluorophenyl)ethyl)-2-(3-(trifluoromethyl)-4,5,6,7-tetrahydro-1H-indazol-1-yl)acetamide], for which, in the data set on HIV-IIIb, the inhibition at 2 µM worked out at 95%. The compound further gave a CC50 at 5 days in “in vitro” of 8600 nM.
In the case of `Cc1cc2ncn(CC(=O)N[C@@H](Cc3cc(F)cc(F)c3)c3ncccc3-c3cccc(S(=O)(=O)NC4CC4)c3)c2cc1C` [Example 353B, (S)—N-(1-(3-(3-(N-cyclopropylsulfamoyl)phenyl)pyridin-2-yl)-2-(3,5-difluorophenyl)ethyl)-2-(5,6-dimethyl-1H-benzo[d]imidazol-1-yl)acetamide], the inhibition at 2 µM in the data set on HIV-IIIb was 110%. Besides, the CC50 at 5 days in the data set “in vitro” is 12700 nM.
Take `Cc1cc2[nH]cc(CC(=O)N[C@@H](Cc3cc(F)cc(F)c3)c3ncccc3-c3cccc(C(N)=O)c3)c2[nH]c1=O` [Example 354, (S)-3-(2-(2-(3,5-difluorophenyl)-1-(2-(6-methyl-5-oxo-4,5-dihydro-1H-pyrrolo[3,2-b]pyridin-3-yl)acetamido)ethyl)pyridin-3-yl)benzamide]: the inhibition at 2 µM in the data set on HIV-IIIb was found to be 82%. Also, the cytotoxic concentration (CC50) at 5 days in “in vitro” was above 53000 nM.
On to `NC(=O)c1cc(-c2cccnc2[C@H](Cc2cc(F)cc(F)c2)NC(=O)Cn2cc(C3=CCCC3)c(C(F)(F)F)n2)ccc1F` [Example 355, (S)-5-(2-(1-(2-(4-cyclopentenyl-3-(trifluoromethyl)-1H-pyrazol-1-yl)acetamido)-2-(3,5-difluorophenyl)ethyl)pyridin-3-yl)-2-fluorobenzamide], for which, in the data set with HIV-IIIb, the inhibition at 2 µM worked out at 1%. For the same compound, the CC50 at 5 days in the data set “in vitro” stood at 9460 nM.
For `CC1(O)CCCc2c(C(F)(F)F)nn(CC(=O)N[C@@H](Cc3cc(F)cc(F)c3)c3ncccc3-c3ccc(F)c(C(N)=O)c3)c21` (stereo partly drawn) [Example 356, 5-(2-((1S)-2-(3,5-difluorophenyl)-1-(2-(7-hydroxy-7-methyl-3-(trifluoromethyl)-4,5,6,7-tetrahydro-1H-indazol-1-yl)acetamido)ethyl)pyridin-3-yl)-2-fluorobenzamide], the inhibition at 2 µM in the data set on HIV-IIIb came out at 76%. The midpoint of cytotoxicity in “in vitro”, the CC50 at 5 days, lay at 20600 nM.
Consider `CC(C)(C)C#Cc1cn(CC(=O)N[C@@H](Cc2cc(F)cc(F)c2)c2ncccc2-c2ccc(F)c(C(N)=O)c2)nc1C(F)(F)F` [Example 357, (S)-5-(2-(2-(3,5-difluorophenyl)-1-(2-(4-(3,3-dimethylbut-1-ynyl)-3-(trifluoromethyl)-1H-pyrazol-1-yl)acetamido)ethyl)pyridin-3-yl)-2-fluorobenzamide], for which the inhibition at 2 µM in the data set with HIV-IIIb worked out at 0%. For the same compound, the CC50 at 5 days in the data set “in vitro” was found to be 8820 nM.
As for `NC(=O)c1cccc(-c2cccnc2[C@H](Cc2cc(F)cc(F)c2)NC(=O)Cn2c(C(F)F)nc3ccccc32)c1` [Example 358, (S)-3-(2-(1-(2-(2-(difluoromethyl)-1H-benzo[d]imidazol-1-yl)acetamido)-2-(3,5-difluorophenyl)ethyl)pyridin-3-yl)benzamide], the inhibition at 2 µM with HIV-IIIb came to 20%. In the data set “in vitro”, this compound had a cytotoxic concentration (CC50) at 5 days of 47400 nM.
`N#Cc1nn(CC(=O)N[C@@H](Cc2cc(F)cc(F)c2)c2ncccc2-c2ccc(F)c(C(N)=O)c2)cc1Br` [Example 359, (S)-5-(2-(1-(2-(4-bromo-3-cyano-1H-pyrazol-1-yl)acetamido)-2-(3,5-difluorophenyl)ethyl)pyridin-3-yl)-2-fluorobenzamide]: the inhibition at 2 µM in the data set with HIV-IIIb was found to be 2%. Also, the 50% cytotoxic concentration (CC50) at 5 days in “in vitro” turned out to be 25300 nM.
For `COc1nc2c(CC(=O)N[C@@H](Cc3cc(F)cc(F)c3)c3ncccc3-c3cccc(C(N)=O)c3)c[nH]c2cc1C` [Example 360E, (S)-3-(2-(2-(3,5-difluorophenyl)-1-(2-(5-methoxy-6-methyl-1H-pyrrolo[3,2-b]pyridin-3-yl)acetamido)ethyl)pyridin-3-yl)benzamide], the inhibition at 2 µM in the data set with HIV-IIIb worked out at 55%. In addition, the CC50 at 5 days in “in vitro” came out at 13100 nM.
On to `COCc1cn(CC(=O)N[C@@H](Cc2cc(F)cc(F)c2)c2ncccc2-c2ccc(F)c(C(N)=O)c2)nc1C(F)(F)F` [Example 361, (S)-5-(2-(2-(3,5-difluorophenyl)-1-(2-(4-(methoxymethyl)-3-(trifluoromethyl)-1H-pyrazol-1-yl)acetamido)ethyl)pyridin-3-yl)-2-fluorobenzamide], for which, in the data set with HIV-IIIb, the inhibition at 2 µM turned out to be 8%. The compound also came in with a CC50 at 5 days in the data set “in vitro” above 53200 nM.
Consider `Cc1cc(=O)n(CC(=O)N[C@@H](Cc2cc(F)cc(F)c2)c2ncccc2-c2ccnc(C(N)=O)c2)c2ccccc12` [Example 362, (S)-2-(2-(3,5-difluorophenyl)-1-(2-(4-methyl-2-oxoquinolin-1(2H)-yl)acetamido)ethyl)-3,4′-bipyridine-2′-carboxamide], for which the inhibition at 2 µM in the data set on HIV-IIIb turned out to be 23%. In the data set “in vitro”, the CC50 at 5 days was above 53000 nM.
For `N#Cc1cn(CC(=O)N[C@@H](Cc2cc(F)cc(F)c2)c2ncccc2-c2ccc(F)c(C(N)=O)c2)nc1C(F)(F)F` [Example 363, (S)-5-(2-(1-(2-(4-cyano-3-(trifluoromethyl)-1H-pyrazol-1-yl)acetamido)-2-(3,5-difluorophenyl)ethyl)pyridin-3-yl)-2-fluorobenzamide], in that order: 2% and 21900 nM.
Consider `NC(=O)c1cc(-c2cccnc2[C@H](Cc2cc(F)cc(F)c2)NC(=O)Cn2nc(C(F)(F)F)c3c2C2CC2CC3(F)F)ccc1F` (stereo partly drawn) [Example 364, 5-(2-((1S)-1-(2-(4,4-difluoro-3-(trifluoromethyl)-5,5a,6,6a-tetrahydrocyclopropa[g]indazol-1(4H)-yl)acetamido)-2-(3,5-difluorophenyl)ethyl)pyridin-3-yl)-2-fluorobenzamide], for which, in the data set with HIV-IIIb, the inhibition at 2 µM was determined as 38%. Also, in “in vitro”, the CC50 at 5 days was determined as 3760 nM.
For `O=C(Cc1c[nH]c2ccc(F)cc12)N[C@@H](Cc1cc(F)cc(F)c1)c1ncncc1-c1ccc(Cl)cc1` [Example 365, (S)—N-(1-(5-(4-chlorophenyl)pyrimidin-4-yl)-2-(3,5-difluorophenyl)ethyl)-2-(5-fluoro-1H-indol-3-yl)acetamide], the inhibition at 2 µM with HIV-IIIb was 86%. The compound also had a cytotoxic concentration (CC50) at 5 days in “in vitro” of 12500 nM.
For `NC(=O)c1cc(-c2cccnc2[C@H](Cc2cc(F)cc(F)c2)NC(=O)Cn2nc(Br)nc2C2CC2)ccc1F` [Example 366, (S)-5-(2-(1-(2-(3-bromo-5-cyclopropyl-1H-1,2,4-triazol-1-yl)acetamido)-2-(3,5-difluorophenyl)ethyl)pyridin-3-yl)-2-fluorobenzamide], in that order: 6% and above 53200 nM.
